Molecules are shown by their SMILES.

The series is described as follows: Human HepG2 cell viability assay in 384 well format. The conditions noted are these: HepG2 cells, read-out: Inhibition. Type of series: toxicity, cell-based. Set-up: dose 125 nL, time 70.5 hour; concentration not given beside the values.

On to `OC(CN1CCC(c2ccn[nH]2)CC1)c1cc(F)ccc1F` (stereo not drawn), for which the cytotoxicity at 70.5 h is -1.27%.

Consider `O=C(CCc1ccccc1)N1CC(n2cncn2)C1`, for which the cytotoxicity at 70.5 h is -7.88%.

For the compound `CN1CCC(N(C)C(=O)c2cnc3c(cnn3C3CCCC3)c2)CC1`, the cytotoxicity at 70.5 h is -7.87%.

Consider `O=C(c1ccn(-c2ccc(F)cc2)n1)N1CCCC(n2ccnc2)C1` (stereo not drawn), for which the cytotoxicity at 70.5 h was -6.02%.

For `Cc1ccnc(NC(=O)c2[nH]nc(C(C)C)c2Br)c1`, the cytotoxicity at 70.5 h worked out at 19.7%.

Take `O=C(c1ccc(-n2cnnc2)cc1)N1CCCC(n2ccnc2)C1` (stereo not drawn): the cytotoxicity at 70.5 h was -8.88%.

As for `Cc1cccc(NC2CCN(C(=O)Nc3cn[nH]c3)CC2)n1`, the cytotoxicity at 70.5 h is -6.92%.

For the compound `Cc1cnn(CC2CCCN2Cc2nc(N)c3ccccc3n2)c1` (stereo not drawn), the cytotoxicity at 70.5 h is 45.2%.

In the case of `Cc1cnn(CC2CCCN2Cc2ncc(-c3ccc(F)cc3)o2)c1` (stereo not drawn), the cytotoxicity at 70.5 h was 24%.

`CCC(O)CN1CCN(C(=O)c2cccn2Cc2cccnc2)CC1` (stereo not drawn): the cytotoxicity at 70.5 h came to 17.3%.

For `CCC(O)CN1CCN(C(=O)c2cccn2Cc2ccncc2)CC1` (stereo not drawn), the cytotoxicity at 70.5 h was found to be 21.3%.

For `N#Cc1ccccc1N1CCCN(C(=O)CCc2cccs2)CC1`, the cytotoxicity at 70.5 h is -8.79%.

As for `Fc1ccc(-c2nc(CN3CCCC3Cn3cncn3)co2)cc1F` (stereo not drawn), the cytotoxicity at 70.5 h stood at 17.9%.

For the compound `N#Cc1ccccc1N1CCCN(C(=O)CCc2ccco2)CC1`, the cytotoxicity at 70.5 h was -5.97%.

Consider `Fc1cccc(-c2nc(CN3CCCC3Cn3cccn3)co2)c1` (stereo not drawn), for which the cytotoxicity at 70.5 h came to 15.8%.

For `O=C(c1cccc2c1OCCO2)N1CCCC1c1noc(C2CC2)n1` (stereo not drawn), the cytotoxicity at 70.5 h is -2.14%.

Consider `Cc1c(C(=O)NCC2CCS(=O)(=O)C2)cnn1-c1ccccc1` (stereo not drawn), for which the cytotoxicity at 70.5 h was -1.52%.

With `Cc1nc(CN2CCC(c3ccnn3CCO)CC2)oc1C`, the cytotoxicity at 70.5 h was determined as 1.65%.

With `Cc1noc(C)c1CN1CCC(c2ccnn2CCO)CC1`, the cytotoxicity at 70.5 h was -5.98%.

Consider `O=C(Cc1n[nH]c2ccccc12)N1CCCCC1Cn1cccn1` (stereo not drawn), for which the cytotoxicity at 70.5 h came to 2.97%.

Turning to `O=c1[nH]c(CCN2CCCC2Cn2cccn2)nc2ccccc12` (stereo not drawn), the cytotoxicity at 70.5 h is -9.61%.

Take `Cc1nc(C2CCCN(C(=O)c3cc(-c4ccccc4)[nH]n3)C2)no1` (stereo not drawn): the cytotoxicity at 70.5 h was -3.98%.

Take `Cc1noc2ncc(C(=O)N3CCCC3c3ccsc3)cc12` (stereo not drawn): the cytotoxicity at 70.5 h is -1.73%.

For the compound `CN(Cc1nc2ccccc2o1)C1CCCN(c2cccnn2)C1` (stereo not drawn), the cytotoxicity at 70.5 h was 4.68%.

Turning to `Cc1nc(C)n(CC2CCCCN2CC(=O)NC(C2CC2)C2CC2)n1` (stereo not drawn), the cytotoxicity at 70.5 h turned out to be 3.82%.

Consider `CCC(O)CN1CCN(C(=O)c2ccn(-c3ccccc3)n2)CC1` (stereo not drawn), for which the cytotoxicity at 70.5 h was found to be 2.94%.

As to `CCn1cnnc1CNC(=O)NC(C)c1ccccn1` (stereo not drawn), the cytotoxicity at 70.5 h was determined as 9.12%.

In the case of `CC(O)CN1CCN(C(=O)c2ccn(-c3ccccc3Cl)n2)CC1` (stereo not drawn), the cytotoxicity at 70.5 h was -2.57%.

On to `CN(Cc1nnc(C2CC2)o1)C1CCCN(c2cccnn2)C1` (stereo not drawn), for which the cytotoxicity at 70.5 h is -3.05%.

As to `Cc1nc(CN(C)C2CCCN(c3cccnn3)C2)oc1C` (stereo not drawn), the cytotoxicity at 70.5 h came out at 3.03%.

Regarding `Cc1nnc2n1CCN(CCCS(=O)(=O)c1ccccc1)C2`, the cytotoxicity at 70.5 h was found to be 0.781%.

As to `CCOc1ncccc1CNC(=O)N1CCCC1c1ccsc1` (stereo not drawn), the cytotoxicity at 70.5 h was -0.934%.

Turning to `CN(C)c1ncccc1CNC(=O)N1CCCC1c1cccs1` (stereo not drawn), the cytotoxicity at 70.5 h came out at 1.79%.

`CC(=O)Nc1nc(C(=O)N2CCCC2c2ccc(Br)cc2)cs1` (stereo not drawn): the cytotoxicity at 70.5 h came out at 3.74%.

On to `Cc1ccc(CN2CCC(NC(=O)c3scnc3C)CC2)cc1`, for which the cytotoxicity at 70.5 h worked out at 3.8%.

For the compound `CC(NC(=O)c1cccs1)C(=O)Nc1cccnc1N1CCCCC1` (stereo not drawn), the cytotoxicity at 70.5 h is 2.11%.

With `CCn1cnnc1CNC(=O)NC(C)c1ccc(Cl)s1` (stereo not drawn), the cytotoxicity at 70.5 h was -0.949%.

Turning to `Cn1cnnc1C1CCN(C(=O)CCOc2ccc(Cl)cc2)CC1`, the cytotoxicity at 70.5 h worked out at 19.2%.

As for `Cc1ccc(OCCC(=O)N2CCC(c3nncn3C)CC2)c(C)c1`, the cytotoxicity at 70.5 h is 1.76%.

For `CC(C)(C)c1cc(NC(=O)CN2CCc3cncnc3C2)on1`, the cytotoxicity at 70.5 h was found to be 3.44%.

For `Cc1cc(NC(=O)CN2CCc3cncnc3C2)no1`, the cytotoxicity at 70.5 h worked out at 25.7%.

On to `Cc1nc(C)n(CC2CCCN2CCC(=O)NC2CCCC2)n1` (stereo not drawn), for which the cytotoxicity at 70.5 h came to 0.666%.

Regarding `CS(=O)(=O)c1ccc(OCCCN2CCc3cncnc3C2)cc1`, the cytotoxicity at 70.5 h came to 23.6%.

As for `Cc1nc(C)n(CC2CCCCN2CC(=O)Nc2nnc(C)s2)n1` (stereo not drawn), the cytotoxicity at 70.5 h was 1.52%.

In the case of `Cc1ccc2[nH]c(C(=O)N3CCCC3Cn3cccn3)cc2c1` (stereo not drawn), the cytotoxicity at 70.5 h stood at 4.08%.

As to `CCOCC(O)CN1CCN(C(=O)c2cccc(CC#N)c2)CC1` (stereo not drawn), the cytotoxicity at 70.5 h is -1.07%.

In the case of `Cc1cnn(CC2CN(Cc3nnc(C4CC4)o3)CCO2)c1` (stereo not drawn), the cytotoxicity at 70.5 h is -5.68%.

Consider `NC(=O)C1CN(C(=O)Nc2ccccc2SC(F)(F)F)CCO1` (stereo not drawn), for which the cytotoxicity at 70.5 h is -10.6%.

With `c1ccc2oc(CCCN3CCCC3Cn3cncn3)nc2c1` (stereo not drawn), the cytotoxicity at 70.5 h was -15.6%.

In the case of `Cc1nn(-c2ccccc2)nc1C(=O)N1CCCC1c1cnn(C)c1` (stereo not drawn), the cytotoxicity at 70.5 h is -18.4%.

Take `NC(=O)C1CN(C(=O)Nc2ccccc2N2CCCCCC2)CCO1` (stereo not drawn): the cytotoxicity at 70.5 h was -17.5%.

`O=C(c1ccc(Cl)c(Cl)c1)N1CCCC(n2cncn2)C1` (stereo not drawn): the cytotoxicity at 70.5 h is -14%.

As to `O=C(CN1CC(n2cccn2)C1)NCCc1c[nH]c2ccccc12`, the cytotoxicity at 70.5 h was -13.2%.

With `CN1CCOC(CN(C(=O)Cc2ccccc2F)c2nccs2)C1` (stereo not drawn), the cytotoxicity at 70.5 h is 20.9%.

Regarding `CN1CCOC(CN(C(=O)CC2CCCC2)c2nccs2)C1` (stereo not drawn), the cytotoxicity at 70.5 h was 4.76%.

Take `COc1cc(C(=O)NS(=O)(=O)c2cccc(C#N)c2)ccc1C`: the cytotoxicity at 70.5 h was -7.93%.

Turning to `Cc1cc(CC(=O)N(CC2CN(C)CCO2)c2nccs2)no1` (stereo not drawn), the cytotoxicity at 70.5 h was -10.3%.

In the case of `Cc1nn(CC(C)C)c(N(C)C)c1CNCc1cccc2c1OCO2`, the cytotoxicity at 70.5 h worked out at 10.6%.

Take `CC(C)c1noc(C(C)N2CCN(CCO)CC2)n1` (stereo not drawn): the cytotoxicity at 70.5 h is -1.66%.

In the case of `CN(Cc1nnc(C2CC2)n1C)C1CCN(Cc2ccon2)C1` (stereo not drawn), the cytotoxicity at 70.5 h is -12.4%.

As to `CC(C)(NCC(=O)NCCC#N)c1ccc2c(c1)OCCO2`, the cytotoxicity at 70.5 h is -10.6%.

In the case of `Cc1nc(C)n(CC2CN(Cc3cccc(C#N)c3)CCO2)n1` (stereo not drawn), the cytotoxicity at 70.5 h is -24.6%.

On to `CN(Cc1nnc(C2CC2)n1C)C1CCN(Cc2ccc(F)cc2)C1` (stereo not drawn), for which the cytotoxicity at 70.5 h is -6.24%.

Regarding `Cc1cnn(CC2CCCN2Cc2nnc(Cc3ccccc3)o2)c1` (stereo not drawn), the cytotoxicity at 70.5 h came out at 8%.

For `COc1c(CNCc2cccc(CS(C)(=O)=O)c2)c(C)nn1C`, the cytotoxicity at 70.5 h is -17%.

For the compound `Cc1nn(CC(C)C)c(N(C)C)c1CNCc1cc2ccccc2[nH]1`, the cytotoxicity at 70.5 h is 5.6%.

Regarding `Cc1noc(CN(Cc2ccc3c(c2)OCO3)C2CCCC2)n1`, the cytotoxicity at 70.5 h was -13%.

On to `CC(C)c1nc(C2CCCN(C(=O)Cc3cccnc3)C2)no1` (stereo not drawn), for which the cytotoxicity at 70.5 h is -16.6%.

In the case of `CC(C(=O)Nc1ccc(N2CCCC2)nc1)n1ccnc1` (stereo not drawn), the cytotoxicity at 70.5 h is -11.6%.

Consider `Cn1ccc(C(=O)N2CCN(c3cc(C#N)ccn3)CC2)cc1=O`, for which the cytotoxicity at 70.5 h is -7.65%.

Turning to `COc1cc(CNCc2ccnc(N3CCOCC3)c2)cc(Cl)c1OC`, the cytotoxicity at 70.5 h was -18.7%.

`N#Cc1ccc(S(=O)(=O)NC(=O)C2CC2)c(C(F)(F)F)c1`: the cytotoxicity at 70.5 h is -13.8%.

Regarding `CC(C(=O)Nc1cccc(N2CCCCC2)c1)n1cncn1` (stereo not drawn), the cytotoxicity at 70.5 h was -6.3%.

Values taken from ChEMBL document CHEMBL3507680, “University of Dundee, Gates Library screen for HepG2 cell viability”.
